Experimental data: article PMC12308784, “Organometallic Half-Sandwich Complexes of 1,10-Phenanthroline Derivatives with Improved Solubility, Albumin-Binding, and Nanoformulation Potential Targeting Drug Resistance in Cancer” (Inorganic Chemistry, 2025)
Like-named read-outs stand apart in the source and are kept apart here. Marks after values point to notes of the source that are not given here.

Legend:
[1] = biological target: T1, human serum albumin (HSA), Trp-214 in Sudlow’s site I (Homo sapiens, UniProt P02768); details: cited from earlier work; for logK Q′ (quenching constant): organometallic precursors, PBS’, t = 25 °C
T1 construct: purchased Sigma-Aldrich A8763

MES-SA/Dx5-eGFP = assay: fluorescent triple coculture cytotoxicity assay; assay type: cell-based, human; details: 384-well plate; for SR (MES-SA/Dx5): selectivity ratio versus parental MES-SA
Text: (§1) Cytotoxicity of the compounds were further tested also in an in vitro MDR model system, consisting of an MES-SA uterine sarcoma cell line, and its P-gp (ABCB1) overexpressing variants MES-SA/B1, that was genetically engineered to express P-gp, and MES-SA/Dx5, which acquired a P-gp-mediated MDR phenotype due to selection in doxorubicin. , The expression of different fluorescent proteins in each line (mCherry, mOrange, or eGFP) allowed coculturing of these three cell lines, providing more relevant data compared to monocultures, as the interaction between parental and resistant phenotypes is reflected in cytotoxicity.
(§2) Cytotoxicity of nanoformulated [RhCp*(BP)-Cl]-Cl with cross-linked HSA and HTP carriers was tested against the previously introduced triple coculture of fluorescent MES-SA cells with a slight difference. Namely, the media containing the dissolved products were removed from the wells, and fresh media was added prior to the measurement as the presence of cross-linked HSA and HTP formulations interfered with the fluorescence of the cells.
(§3) MDA-MB-231 breast adenocarcinoma and MCF-7 and T-47D invasive breast carcinomas were purchased from the Developmental Therapeutic Program of the National Cancer Institute (NIH, USA), and they were cultured in RPMI medium (Thermo Fisher). MES–SA and MES–SA/Dx5 uterine sarcoma cell lines were purchased from American Type Culture Collection and were kept in DMEM (Thermo Fisher). MES–SA/B1 was created by the transfection of the human MDR1 gene in MES–SA, and MES–SA mCherry, MES–SA/B1 mOrange, and MES–SA/Dx5 eGFP were engineered to stably express the respective fluorescent proteins, as described previously. Culture media were supplemented with 10% fetal bovine serum, 2 mM L-glutamine, 100 units/mL penicillin, and 100 μg/mL streptomycin (Thermo Fisher). Cells were kept at 37 °C under 5% CO2 and were negative for mycoplasma infection.
(§4) Cytotoxicity of the nonfluorescent cancer cells (MDA-MB-231, MCF-7, T-47D) were assessed with PrestoBlue cell viability reagent (Thermo Fisher). Briefly, 2500 cells/well were seeded on 384-well plates, and then the next day drugs were added. After 72 h incubation, PrestoBlue was added in a 10% final concentration, and after an hour of additional incubation, plates were measured with a PerkinElmer EnSpire plate reader at 555 nm/585 nm excitation/emission wavelengths. […] Drugs were added the following day, and the intensity of the fluorescent proteins were measured after 144 h incubation at the respective fluorescent channels (excitation/emission: eGFP: 485 nm/510 nm; mCherry: 585 nm/610 nm; mOrange: 545 nm/567 nm). pIC50 values were calculated by a custom program written by Judit Sessler in C#. IC50 values and standard deviation were calculated from average pIC50 values from at least 3 independent measurements. Since the IC50 values were obtained through nonlinear regression fitting of the viability vs. log(concentration) data, the resulting confidence intervals are inherently asymmetric (see pIC50 values and their corresponding SD in Tables S5 and S6).

MES-SA mCherry = assay: fluorescent triple coculture cytotoxicity assay; assay type: cell-based, human; details: 384-well plate
Text: as §1, §2, §3, §4

MES-SA/B1-mOrange = assay: fluorescent triple coculture cytotoxicity assay; assay type: cell-based, human; details: 384-well plate; for SR (MES-SA/B1): selectivity ratio versus parental MES-SA
Text: as §1, §2, §3, §4

[2] = biological target: T2, HSA Sudlow’s site I (IIA subdomain) (Homo sapiens, UniProt P02768); details: organometallic precursors; PBS’; t = 25 °C; ref footnote a (ref 56); cited from earlier work
T2 construct: purchased Sigma-Aldrich A8763

T47D = assay: PrestoBlue cytotoxicity assay; assay type: cell-based
Description: as §3
(§5) Cytotoxicity of the nonfluorescent cancer cells (MDA-MB-231, MCF-7, T-47D) were assessed with PrestoBlue cell viability reagent (Thermo Fisher). Briefly, 2500 cells/well were seeded on 384-well plates, and then the next day drugs were added. After 72 h incubation, PrestoBlue was added in a 10% final concentration, and after an hour of additional incubation, plates were measured with a PerkinElmer EnSpire plate reader at 555 nm/585 nm excitation/emission wavelengths. Fluorescent cells (MES-SA mCherry, MES-SA/B1 mOrange, MES-SA/Dx5 eGFP) were admixed before seeding on 384-well plates at 800 cells/well density each, thus altogether 2400 cells/well. Drugs were added the following day, and the intensity of the fluorescent proteins were measured after 144 h incubation at the respective fluorescent channels (excitation/emission: eGFP: 485 nm/510 nm; mCherry: 585 nm/610 nm; mOrange: 545 nm/567 nm). pIC50 values were calculated by a custom program written by Judit Sessler in C#. IC50 values and standard deviation were calculated from average pIC50 values from at least 3 independent measurements. Since the IC50 values were obtained through nonlinear regression fitting of the viability vs. log(concentration) data, the resulting confidence intervals are inherently asymmetric (see pIC50 values and their corresponding SD in Tables S5 and S6).

MCF-7 = assay: PrestoBlue cytotoxicity assay; assay type: cell-based
Description: as §3, §5

MDA-MB-231 = assay: PrestoBlue cytotoxicity assay; assay type: cell-based
Description: as §3, §5

[3] = system: MDA-MB-231, MCF-7 and T-47D breast cancer cell lines; assay: PrestoBlue cytotoxicity, range over the three breast cancer lines; assay type: cell-based; details: MDA-MB-231, MCF-7, T-47D; 72 h
Description: The PHEN-derived ligands (DCP, BP) (together with PHEN for comparison) and the isolated complexes ([RuCym(DCP)-Cl]-Cl, [RhCp*(DCP)-Cl]-Cl, [RuCym(BP)-Cl]-Cl, [RhCp*(BP)-Cl]-Cl) were tested against the estrogen receptor (ER) negative MDA-MB-231, and the ER positive MCF-7 and T-47D breast cancer cell lines (Table , and Figure a for easier comparison).
as §3
as §5, with “measurements.” for “measurements. Since the IC50 values were obtained through nonlinear regression fitting of the viability vs. log(concentration) data, the resulting confidence intervals are inherently asymmetric (see pIC50 values and their corresponding SD in Tables S5 and S6).”

[4] = Homo sapiens, MES-SA/Dx5-eGFP, coculture, 144 h, read-out: IC50
[5] = Homo sapiens, Mes-Sa/Dx5 eGFP, Table S6, read-out: pIC50 (mean) (converted)
[6] = Homo sapiens, MES-SA, 144 h, MES-SA mCherry, coculture, 144 h, read-out: IC50
[7] = Homo sapiens, MES-SA, Mes-Sa mCherry, Table S6, read-out: pIC50 (mean) (converted)
[8] = Homo sapiens, MES-SA/B1-mOrange, coculture, 144 h, read-out: IC50
[9] = Homo sapiens, Mes-Sa/B1 mOrange, Table S6, read-out: pIC50 (mean) (converted)
[10] = Homo sapiens, 72 h, 384-well plate, read-out: IC50
[11] = Homo sapiens, Table S5, read-out: pIC50 (mean) (converted)
[12] = MES-SA mCherry, coculture, 144 h, read-out: IC50
[13] = 72 h, 384-well plate, read-out: IC50

T1 sequence (P02768 25-609): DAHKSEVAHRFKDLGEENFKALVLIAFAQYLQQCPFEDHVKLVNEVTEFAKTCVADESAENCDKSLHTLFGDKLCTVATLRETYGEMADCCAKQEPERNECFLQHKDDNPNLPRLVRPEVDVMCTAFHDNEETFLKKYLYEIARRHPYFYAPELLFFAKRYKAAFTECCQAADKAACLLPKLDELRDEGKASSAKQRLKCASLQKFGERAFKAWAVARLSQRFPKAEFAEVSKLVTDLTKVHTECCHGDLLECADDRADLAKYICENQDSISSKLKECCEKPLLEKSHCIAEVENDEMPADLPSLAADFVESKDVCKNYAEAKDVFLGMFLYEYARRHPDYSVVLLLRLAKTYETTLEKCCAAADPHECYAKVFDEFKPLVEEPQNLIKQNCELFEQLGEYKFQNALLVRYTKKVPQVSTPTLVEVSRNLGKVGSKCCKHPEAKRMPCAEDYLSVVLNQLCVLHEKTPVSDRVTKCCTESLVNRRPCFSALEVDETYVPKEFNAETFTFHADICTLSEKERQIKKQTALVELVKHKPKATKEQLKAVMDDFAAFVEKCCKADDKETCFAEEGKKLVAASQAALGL
T2 sequence (P02768 25-609): as above

For `[Ru].c1cnc2c(c1)ccc1cccnc12.c1cnc2c(c1)ccc1cccnc12.c1cnc2c(c1)ccc1cccnc12` [[Ru(PHEN)3]^2+], which “interaction with HSA” value ([1]; ref number not given) is on record?
Its value is “negligible interaction”.

What does the source list for `COc1cc([C@@H]2c3cc4c(cc3[C@@H](O[C@@H]3O[C@@H]5CO[C@@H](C)O[C@H]5[C@H](O)[C@H]3O)[C@H]3COC(=O)[C@H]23)OCO4)cc(OC)c1O` [etoposide]?
IC50 (MES-SA/Dx5-eGFP; [4]): 2.08 µM; IC50 (MES-SA/Dx5-eGFP; [5]): 2.09 µM; resistance of MES-SA/Dx5 versus parental line (MES-SA/Dx5-eGFP; coculture): 10 fold; SR (MES-SA/Dx5) (MES-SA/Dx5-eGFP): 0.1; IC50 (MES-SA mCherry; [6]): 0.2 µM; IC50 (MES-SA mCherry; [7]): 0.2 µM; IC50 (MES-SA/B1-mOrange; [8]): 1.19 µM; IC50 (MES-SA/B1-mOrange; [9]): 1.17 µM; resistance of MES-SA/B1 versus parental line (MES-SA/B1-mOrange; coculture): 6 fold; SR (MES-SA/B1) (MES-SA/B1-mOrange): 0.2

Which “logK WF′ (WF displacement constant)” value [2] does the source give for “[Ru(η^6-p-cymene)Cl2]2 [RuCym precursor]” here?
Its value is 5.9 ^a.

What about the “logK Q′ (quenching constant)” value [1] of the same molecule?
The value was 5.7 ^a.

What does the source list for [Rh(η^5-C5Me5)Cl2]2 [RhCp*precursor]?
logK WF′ (WF displacement constant) [2]: 6.1 ^a; logK Q′ (quenching constant) [1]: 5.8 ^a; logK Q′ (quenching constant) ([1]; listed as precursor RhCp*): 5.8

Which IC50 (T47D; [10]) does the source give for `c1cnc2c(c1)ccc1cccnc12` [PHEN, 1,10-phenanthroline] here?
The IC50 was 5.47 µM.

And the IC50 (T47D; [11])?
Its IC50 is 5.5 µM.

And the IC50 (MCF-7; Homo sapiens, MCF7, 72 h, 384-well plate, read-out: IC50)?
The IC50 was 8.57 µM.

What about the IC50 (MCF-7; Homo sapiens, MCF7, Table S5, read-out: pIC50 (mean) (converted)) of the same molecule?
Its IC50 is 8.51 µM.

And the IC50 (MDA-MB-231; [10])?
Its IC50 is 3.2 µM.

What about the IC50 (MDA-MB-231; [11]) of the same molecule?
The IC50 was 3.16 µM.

What about the IC50 [3] of the same molecule?
The IC50 was 3.2 to 8.6 µM.

And the IC50 (MES-SA/Dx5-eGFP; [4])?
Its IC50 is 0.41 µM.

And the IC50 (MES-SA/Dx5-eGFP; [5])?
Its IC50 is 0.417 µM.

What about the “SR (MES-SA/Dx5)” value (MES-SA/Dx5-eGFP) of the same molecule?
Its value is 7.1.

What about the IC50 (MES-SA mCherry; [6]) of the same molecule?
The IC50 was 3 µM.

And the IC50 (MES-SA mCherry; [7])?
The IC50 was 2.95 µM.

And the IC50 (MES-SA mCherry; [12])?
The IC50 was 2.95 µM.

And the IC50 (MES-SA/B1-mOrange; [8])?
Its IC50 is 1.39 µM.

And the IC50 (MES-SA/B1-mOrange; [9])?
The IC50 was 1.38 µM.

And the “SR (MES-SA/B1)” value (MES-SA/B1-mOrange)?
The value was 2.1.

Which IC50 (T47D; [13]) does the source give for `N.N.[Cl][Pt][Cl]` [cisplatin] here?
Its IC50 is 6.98 µM.

What about the “pIC50 (mean)” value (T47D; Table S5) of the same molecule?
The value was 5.16.

And the IC50 (MCF-7; [13])?
The IC50 was 4.78 µM.

And the “pIC50 (mean)” value (MCF-7; Table S5)?
Its value is 5.32.

And the IC50 (MDA-MB-231; [13])?
Its IC50 is 3.16 µM.

And the “pIC50 (mean)” value (MDA-MB-231; Table S5)?
The value was 5.50.

And the IC50 [3]?
Its IC50 is 3.2 to 7 µM.

What about the IC50 (MES-SA/Dx5-eGFP; MES-SA/Dx5-eGFP, coculture, 144 h, read-out: IC50) of the same molecule?
The IC50 was 4.28 µM.

And the “pIC50 (mean)” value (MES-SA/Dx5-eGFP; Mes-Sa/Dx5 eGFP, Table S6)?
The value was 5.37.

What about the “SR (MES-SA/Dx5)” value (MES-SA/Dx5-eGFP) of the same molecule?
Its value is 0.3.

And the IC50 (MES-SA mCherry; [12])?
Its IC50 is 1.49 µM.

What about the “pIC50 (mean)” value (MES-SA mCherry; Mes-Sa mCherry, Table S6) of the same molecule?
The value was 5.83.

And the IC50 (MES-SA/B1-mOrange; MES-SA/B1-mOrange, coculture, 144 h, read-out: IC50)?
Its IC50 is 1.71 µM.

What about the “pIC50 (mean)” value (MES-SA/B1-mOrange; Mes-Sa/B1 mOrange, Table S6) of the same molecule?
The value was 5.77.

What about the “SR (MES-SA/B1)” value (MES-SA/B1-mOrange) of the same molecule?
Its value is 0.9.
